Some results are limits rather than exact numbers.

From US8895744B2, “Alfa-carboline inhibitors of NPM-ALK, RET, and Bcr-Abl” (Universita' Degli Studi di Milano-Bicocca, priority 2008, dated 2014) come the findings set out here.

The test system of data set [1] is parent untransformed BaF3 cells. The data set can be described thus: Tritiated thymidine uptake cell proliferation assay, parental BaF3 (control). Type of data set: cell-based. As to conditions: Mus musculus, 3[H]-thymidine uptake, 72 h, medium with IL-3, read-out: BaF parental IC50. The protocol: (§1) Method: Tritiated Thymidine Uptake Cell Proliferation Assay
(§2) The following procedure was used with parent untransformed BaF3 cells, BaF3 cells transformed with the oncogenic fusion protein NPM/ALK, NPM/ALK positive SUDHL-1 cells, ALK-negative U937 cells, NPM/ALK positive KARPAS-299 cells. The parent untransformed BaF3 cells and Alk-negative U937 cells are used as controls. Cells were seeded in U-bottomed 96-well plates at 10 000 cells/well in a volume of 100 μL in supplemented medium. In the case of the parent untransformed BaF3 cells, the medium was supplemented with IL-3. Serial dilutions of inhibitors were added to the appropriate wells and volumes adjusted to 200 μL. Controls were treated with the equivalent volume of vehicle, DMSO, alone. Plates were incubated at 37° C. for 72 h. ^3[H]-thymidine (1 μCi/well) was added for the last 16 h of incubation. Cells were harvested on to paper filters and ^3[H]-thymidine incorporation was measured using a β scintillation counter (1430 MicroBeta, Wallac, Turku, Finland). The 50% inhibitory concentration (IC50) was defined as the concentration of inhibitor, expressed in micromolar, that gave a 50% decrease in ^3[H]-thymidine uptake compared with controls.
as §2, with “protein bcr-abl, Abl-negative” for “protein NPM/ALK, NPM/ALK positive SUDHL-1 cells, ALK-negative”, “cells, or Bcr-abl” for “cells, NPM/ALK”, “positive LAMA-84” for “positive KARPAS-299”, “and Abl-negative” for “and Alk-negative”, “in ^3H-thymidine” for “in ^3[H]-thymidine”
as §2, with “RET-PTC2, or RET-negative 11937” for “NPM/ALK, NPM/ALK positive SUDHL-1 cells, ALK-negative U937 cells, NPM/ALK positive KARPAS-299”, “RET-negative” for “Alk-negative”

Data set [2] deals with T1, BaF3 cells transformed with the oncogenic fusion protein NPM/ALK (Homo sapiens, UniProt Q9UM73).
T1 construct: fused on or other part: P06748 (Nucleophosmin)
Description: Tritiated thymidine uptake cell proliferation assay, BaF3 NPM/ALK. Type of data set: cell-based. The conditions noted are these: 3[H]-thymidine uptake, 72 h; read-out: BaF NPM/ALK IC50. The protocol:
(§3) Inhibition of the proliferation of NPM/ALK positive cells
as §1, §2

For data set [3], the target named is T2, Recombinant Abl T315I protein (Homo sapiens, UniProt P00519, T315I).
T2 construct: made in house; host or cells: Sf9 cells (baculovirus)
Description: Abl T315I mutant kinase inhibitory activity, ELISA-based in vitro kinase assay. It counts as biochemical. The conditions noted are these: purified Abl T315I, 0.3 mM ATP. The method, then: (§4) Recombinant ALK kinase was expressed in Sf9 insect cells using the pBlueBacHis2C baculovirus vector system and purified using an anion exchange Fast Flow Q-sepharose column (Amersham-Pharmacia Biotech) followed by HiTrap™-nickel affinity column (Amersham-Pharmacia Biotech). Purified ALK protein was used to screen inhibitors in the ELISA-based kinase assay. A Nunc Immuno 96 well plate was incubated overnight at 37° C. with coating solution (125 μL/well) containing ALK peptide substrate ([…]) (SEQ ID NO: 1) at various concentrations in PBS. Wells were then washed with 200 μL of wash buffer (PBS-Tween 0.05%) and left to dry for at least 2 h at 37° C. The kinase reaction was performed in the presence of 50 mM Tris pH 7.5, 5 mM MnCl2, 5 mM MgCl2, 0.3 mM ATP and purified rALK in a total volume of 100 μL/well at 30° C. for 15 min. For inhibitor testing the reaction mix was preincubated with the inhibitor or solvent control for 10 min at room temperature before transferring to the ELISA plate. After the reaction wells were washed 5 times with 200 μL of wash buffer. Phosphorylated peptide was detected using 100 μL/well of a mouse monoclonal anti-phosphotyrosine antibody (clone 4G10 Upstate Biotech Ltd) diluted 1:2000 in PBS+4% BSA. After 30 min incubation at room temperature the antibody was removed and wells were washed as described above. 100 μL of a secondary antibody (anti-mouse IgG, Horseradish Peroxidase linked whole antibody, Amersham Pharmacia Biotech) diluted 1:1000 in PBS+4% BSA was added to each well and the plate was incubated again for 30 min at room temperature before washing as above. The plate was developed using 100 μL/well TMB Substrate Solution (Endogen) and the reaction was stopped by adding an equiv.ual volume of H2SO4 0.36 M. Finally, the absorbance was read at 450 nm using an Ultrospec® 300 spectrophotometer (Amersham-Pharmacia Biotech). The concentration of the test solution showing 50% inhibition as compared with the control was expressed as IC50 (μM).
37. Abl T315I Mutant Kinase Inhibitory Activity
(§5) Method: ELISA-Based In Vitro Kinase Assay
(§6) Recombinant Abl T315I protein was expressed in Sf9 cells using the pBlueBacHis2C baculovirus expression vector. Abl T315I was purified using an anion exchange Fast Flow Q-sepharose column (Amersham-Pharmacia Biotech) followed by HiTrap™-nickel affinity column (Amersham-Pharmacia Biotech). Purified Abl T315I was used in the ELISA-based kinase assay to screen inhibitors as described above. The kinase reaction was performed in the presence of 50 mM Tris pH 7.5, 1 mM MnCl2, 5 mM MgCl2, 0.3 mM ATP, peptide substrate ([…]) (SEQ ID NO: 1) and purified Abl T315I. The concentration of the test solution showing 50% inhibition as compared with the control was expressed as IC50 (μM).

The target in data set [4] is T3, Recombinant Ret protein (Homo sapiens, UniProt P07949).
T3 construct: made in house; host or cells: Sf9 cells (baculovirus)
Description: RET kinase inhibitory activity, ELISA-based in vitro kinase assay. As to conditions: purified Ret, 0.3 mM ATP. It counts as biochemical. The method, then:
as §4
38. RET Kinase Inhibitory Activity
as §5
as §6, with “Ret” for “Abl T315I”, “Ret.” for “Abl T315I.”
For orientation: ELISA stands for enzyme-linked immunosorbent assay.

Data set [5] has as its system NPM/ALK positive SUDHL-1 cells. The data set can be described thus: Tritiated thymidine uptake cell proliferation assay, SUDHL-1. Type of data set: cell-based. The conditions noted are these: 3[H]-thymidine uptake, 72 h. The protocol: as §3, §1, §2
In data set [6] the target is T4, Recombinant ALK kinase (Homo sapiens, UniProt Q9UM73).
T4 construct: made in house; host or cells: Sf9 insect cells (baculovirus)
Description: ALK kinase inhibitory activity, ELISA-based in vitro kinase assay. Type of data set: biochemical. The conditions noted are these: purified rALK, 0.3 mM ATP, read-out: ALK IC50. The method, then:
36. Alk Kinase Inhibitory Activity
as §5, §4

T3 sequence (P07949 29-1114): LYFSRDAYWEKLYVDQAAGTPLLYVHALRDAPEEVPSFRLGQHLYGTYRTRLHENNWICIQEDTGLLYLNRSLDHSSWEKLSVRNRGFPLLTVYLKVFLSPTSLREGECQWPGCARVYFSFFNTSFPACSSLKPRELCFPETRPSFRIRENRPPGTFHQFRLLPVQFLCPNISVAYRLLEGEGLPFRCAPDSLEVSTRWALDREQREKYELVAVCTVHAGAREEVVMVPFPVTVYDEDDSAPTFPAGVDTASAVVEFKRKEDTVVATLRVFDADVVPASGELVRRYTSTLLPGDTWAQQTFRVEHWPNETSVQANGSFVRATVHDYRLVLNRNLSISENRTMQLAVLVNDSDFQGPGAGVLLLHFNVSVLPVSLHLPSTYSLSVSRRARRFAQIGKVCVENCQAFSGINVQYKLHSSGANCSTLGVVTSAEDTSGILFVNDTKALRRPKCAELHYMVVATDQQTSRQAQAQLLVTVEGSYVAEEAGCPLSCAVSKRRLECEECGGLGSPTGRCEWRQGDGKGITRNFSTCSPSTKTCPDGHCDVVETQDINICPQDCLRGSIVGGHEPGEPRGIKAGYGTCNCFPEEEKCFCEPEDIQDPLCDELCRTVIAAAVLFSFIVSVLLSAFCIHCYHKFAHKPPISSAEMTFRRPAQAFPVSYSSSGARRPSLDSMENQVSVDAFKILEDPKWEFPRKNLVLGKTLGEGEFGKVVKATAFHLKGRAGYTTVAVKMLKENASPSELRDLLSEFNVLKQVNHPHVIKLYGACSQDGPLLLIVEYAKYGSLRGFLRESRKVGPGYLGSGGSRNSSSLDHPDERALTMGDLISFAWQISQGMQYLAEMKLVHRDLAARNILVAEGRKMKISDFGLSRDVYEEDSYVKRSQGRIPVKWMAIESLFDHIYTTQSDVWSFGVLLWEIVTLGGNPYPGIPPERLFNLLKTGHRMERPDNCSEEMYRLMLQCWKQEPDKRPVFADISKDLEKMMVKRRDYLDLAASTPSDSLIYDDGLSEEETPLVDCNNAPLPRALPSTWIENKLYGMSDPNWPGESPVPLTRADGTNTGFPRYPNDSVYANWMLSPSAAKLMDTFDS
T1 sequence (Q9UM73 whole entry, change not shown, the tested form may be a part): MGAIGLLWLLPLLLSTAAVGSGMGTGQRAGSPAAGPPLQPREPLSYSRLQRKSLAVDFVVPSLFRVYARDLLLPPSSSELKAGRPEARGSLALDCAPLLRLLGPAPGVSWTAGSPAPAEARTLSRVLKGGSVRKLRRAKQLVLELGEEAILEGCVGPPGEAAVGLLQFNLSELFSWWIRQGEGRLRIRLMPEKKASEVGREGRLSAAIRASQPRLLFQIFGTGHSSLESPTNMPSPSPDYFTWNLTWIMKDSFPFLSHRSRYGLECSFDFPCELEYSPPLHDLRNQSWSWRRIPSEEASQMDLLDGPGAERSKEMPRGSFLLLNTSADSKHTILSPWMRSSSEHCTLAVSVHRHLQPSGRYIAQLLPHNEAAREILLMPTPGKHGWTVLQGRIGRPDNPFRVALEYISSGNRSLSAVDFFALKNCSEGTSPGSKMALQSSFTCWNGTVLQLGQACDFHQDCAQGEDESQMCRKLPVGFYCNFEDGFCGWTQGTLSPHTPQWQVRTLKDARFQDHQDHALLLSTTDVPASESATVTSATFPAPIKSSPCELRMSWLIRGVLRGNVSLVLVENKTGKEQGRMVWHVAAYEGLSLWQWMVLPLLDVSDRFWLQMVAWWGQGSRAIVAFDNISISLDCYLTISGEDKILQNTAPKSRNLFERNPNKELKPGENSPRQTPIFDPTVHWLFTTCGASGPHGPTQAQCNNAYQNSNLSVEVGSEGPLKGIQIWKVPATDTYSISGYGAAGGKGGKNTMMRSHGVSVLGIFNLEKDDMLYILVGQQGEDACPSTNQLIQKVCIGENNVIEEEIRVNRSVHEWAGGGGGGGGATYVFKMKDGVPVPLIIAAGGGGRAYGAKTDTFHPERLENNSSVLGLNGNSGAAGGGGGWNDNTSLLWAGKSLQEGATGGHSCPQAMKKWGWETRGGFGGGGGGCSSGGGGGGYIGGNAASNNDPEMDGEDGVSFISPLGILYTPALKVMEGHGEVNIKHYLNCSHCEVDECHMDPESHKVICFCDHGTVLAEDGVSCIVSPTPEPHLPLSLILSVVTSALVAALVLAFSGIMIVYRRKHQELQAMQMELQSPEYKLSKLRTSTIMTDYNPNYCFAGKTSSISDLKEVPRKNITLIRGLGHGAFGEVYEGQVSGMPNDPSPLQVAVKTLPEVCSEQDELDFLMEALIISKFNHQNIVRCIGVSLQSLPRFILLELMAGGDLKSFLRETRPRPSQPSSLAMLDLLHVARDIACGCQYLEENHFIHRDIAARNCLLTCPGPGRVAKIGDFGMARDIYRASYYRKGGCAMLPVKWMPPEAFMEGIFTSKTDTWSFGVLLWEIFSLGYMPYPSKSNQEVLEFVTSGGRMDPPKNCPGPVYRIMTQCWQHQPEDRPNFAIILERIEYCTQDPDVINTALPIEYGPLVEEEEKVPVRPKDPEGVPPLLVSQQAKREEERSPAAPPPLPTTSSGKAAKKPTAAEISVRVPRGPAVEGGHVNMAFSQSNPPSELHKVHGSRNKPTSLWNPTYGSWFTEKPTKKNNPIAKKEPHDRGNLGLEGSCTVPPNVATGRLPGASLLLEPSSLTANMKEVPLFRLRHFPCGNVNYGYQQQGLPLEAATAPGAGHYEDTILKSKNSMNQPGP
T4 sequence (Q9UM73 19-1620): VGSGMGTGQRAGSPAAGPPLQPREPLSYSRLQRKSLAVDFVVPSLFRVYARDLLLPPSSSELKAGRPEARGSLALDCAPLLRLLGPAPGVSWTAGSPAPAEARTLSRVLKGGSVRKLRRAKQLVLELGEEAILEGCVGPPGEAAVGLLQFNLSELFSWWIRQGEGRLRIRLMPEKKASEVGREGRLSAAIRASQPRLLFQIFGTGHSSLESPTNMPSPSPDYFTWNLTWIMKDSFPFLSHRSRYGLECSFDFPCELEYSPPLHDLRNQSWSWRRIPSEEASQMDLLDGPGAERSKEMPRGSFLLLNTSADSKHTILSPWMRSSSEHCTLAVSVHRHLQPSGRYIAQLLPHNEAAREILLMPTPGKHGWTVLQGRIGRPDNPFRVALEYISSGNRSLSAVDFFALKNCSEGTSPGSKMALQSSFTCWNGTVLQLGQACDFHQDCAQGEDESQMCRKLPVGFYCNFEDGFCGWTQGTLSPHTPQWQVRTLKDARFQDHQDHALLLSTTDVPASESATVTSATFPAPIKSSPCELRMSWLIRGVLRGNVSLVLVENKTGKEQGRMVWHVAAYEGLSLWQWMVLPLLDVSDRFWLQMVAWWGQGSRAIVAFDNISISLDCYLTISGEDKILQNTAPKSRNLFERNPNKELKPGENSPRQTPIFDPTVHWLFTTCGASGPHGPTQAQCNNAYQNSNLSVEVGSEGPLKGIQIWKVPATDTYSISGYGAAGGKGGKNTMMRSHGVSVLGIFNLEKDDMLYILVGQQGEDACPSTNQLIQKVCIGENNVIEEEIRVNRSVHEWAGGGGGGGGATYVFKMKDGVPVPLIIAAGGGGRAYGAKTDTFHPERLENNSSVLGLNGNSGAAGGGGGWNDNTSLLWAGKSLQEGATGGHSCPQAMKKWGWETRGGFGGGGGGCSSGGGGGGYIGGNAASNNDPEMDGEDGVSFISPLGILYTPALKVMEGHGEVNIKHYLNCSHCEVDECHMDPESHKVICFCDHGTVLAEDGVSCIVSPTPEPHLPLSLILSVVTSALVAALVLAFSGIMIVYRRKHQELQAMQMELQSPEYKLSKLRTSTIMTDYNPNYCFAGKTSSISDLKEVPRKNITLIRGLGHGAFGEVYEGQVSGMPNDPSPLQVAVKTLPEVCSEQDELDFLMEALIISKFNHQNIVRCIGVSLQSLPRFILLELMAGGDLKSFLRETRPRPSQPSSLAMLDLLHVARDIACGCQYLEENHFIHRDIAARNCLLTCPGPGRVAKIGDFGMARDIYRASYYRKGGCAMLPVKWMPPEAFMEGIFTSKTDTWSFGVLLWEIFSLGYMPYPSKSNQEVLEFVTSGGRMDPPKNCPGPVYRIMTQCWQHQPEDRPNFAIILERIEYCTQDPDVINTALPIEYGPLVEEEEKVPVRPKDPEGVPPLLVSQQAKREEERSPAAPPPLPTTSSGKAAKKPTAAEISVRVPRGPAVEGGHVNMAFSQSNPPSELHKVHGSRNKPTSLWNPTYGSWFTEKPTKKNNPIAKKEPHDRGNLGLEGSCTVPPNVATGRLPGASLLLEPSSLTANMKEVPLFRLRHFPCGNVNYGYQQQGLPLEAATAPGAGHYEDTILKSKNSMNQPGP

For the molecule `c1coc(-c2ccc3c(n2)[nH]c2ccccc23)c1` [R326, 2-(furan-2-yl)-9H-pyrido[2,3-b]indole], the melting point fell in the range of 208 to 210 °C. Further, in data set [1], the IC50 is 8.8 µM. Further, in data set [2], the GI50 was determined as 19 µM.
On to `C(=C\c1ccc2c(n1)[nH]c1ccccc12)/c1ccccc1` [R300, 2-(2′-phenylethenyl)-9H-pyrido[2,3-b]indole], for which the IC50 in data set [3] was above 100 µM; in data set [4], 4.8 µM; in data set [1], above 100 µM; in data set [5], above 100 µM. Moreover, in data set [2], the GI50 is 80 µM.
Consider `O=C(CSCCOc1ccccc1)c1ccc2[nH]c3ncc(Cl)cc3c2c1` [R280, 1-(3-Chloro-9H-pyrido[2,3-b]indol-6-yl)-2-(2-phenoxyethylsulfanyl)ethanone], for which the results for the IC50 in data set [3], in data set [4] and in data set [1] were 33 µM, 3.6 µM and 37 µM, respectively. In addition, the GI50 in data set [2] is above 50 µM.
As for `O=c1[nH]c(-c2ccc3[nH]c4ncccc4c3c2)cs1` [R221, 4-(9H-pyrido[2,3-b]indol-6-yl)thiazol-2(3H)-one], the values for the half-maximal inhibitory concentration (IC50) in data set [6], in data set [3] and in data set [4] were 19 ± 1.8 µM, 53 ± 16 µM and 82 ± 3.2 µM, respectively.
On to `O=Cc1ccc2[nH]c3ncc(Cl)cc3c2c1` [R267], for which the IC50 in data set [3] was 20 ± 0.67 µM; in data set [4], 34 ± 27 µM; in data set [1], 17 µM; in data set [5], 9.4 µM.
`c1coc(-c2ccnc3[nH]c4ccccc4c23)c1` [R327, 4-(furan-2-yl)-9H-pyrido[2,3-b]indole] came in with a melting point above 220 °C. Also, the half-maximal inhibitory concentration (IC50) in data set [1] is above 100 µM. Besides, the GI50 in data set [2] was determined as 26 µM.
With `CN(C)CCSCC(=O)c1ccc2[nH]c3ncc(Cl)cc3c2c1` [R284, 1-(3-Chloro-9H-pyrido[2,3-b]indol-6-yl)-2-(2,2-dimethylaminoethylsulfanyl)ethanone], the results for the half-inhibitory concentration (IC50) in data set [6], in data set [3] and in data set [4] were 36 ± 14 µM, above 100 µM and 41 µM, respectively.
As for `COc1ccc(-c2ccnc3[nH]c4ccccc4c23)cc1` [R309, 4-(4-methoxyphenyl)-9H-pyrido[2,3-b]indole], the melting point was 208 to 210 °C. Moreover, the IC50 in data set [6] is 4 ± 0.2 µM. For the same molecule, the IC50 in data set [3] was 1.6 µM. In addition, in data set [1], the concentration for half-maximal inhibition (IC50) came out at 15 µM. Also, the GI50 in data set [2] is 25 µM.
As for `C(=C\c1cnc2[nH]c3ccc(-c4ccc(N5CCOCC5)cn4)cc3c2c1)/c1ccccc1` [R307, 6-(5-morpholin-4-yl-pyridin-2-yl)-3-(2′-phenylethenyl)-9H-pyrido[2,3-b]indole], the IC50 was 0.5 ± 0.1 µM in data set [6], 3.1 ± 0.1 µM in data set [3], above 100 µM in data set [4] and above 100 µM in data set [1]. Also, in data set [2], the GI50 worked out at 40 µM.
Regarding `O=C(CSc1cccc(Br)c1)c1ccc2[nH]c3ncc(Cl)cc3c2c1` [R279, 2-(3-Bromophenylsulfanyl)-1-(3-chloro-9H-pyrido[2,3-b]indol-6-yl)ethanone], the IC50 in data set [3] is above 100 µM; in data set [4], 3.6 µM; in data set [1], above 50 µM. Also, the GI50 in data set [2] is above 50 µM.
`O=[N+]([O-])c1cccc(-c2ccnc3[nH]c4ccccc4c23)c1` [R331, 4-(3-nitrophenyl)-9H-pyrido[2,3-b]indole] registered a melting point above 220 °C. Further, the IC50 in data set [6] is above 100 µM. In addition, in data set [1], the IC50 was above 100 µM. Further, the GI50 in data set [2] is 40 µM.
As for `COc1ccc(-c2ccc3c(c2)c2c(-c4ccc(OC)cc4)ccnc2n3S(=O)(=O)c2ccccc2)cc1` [compound 37, 9-benzenesulfonyl-4,6-di(4-methoxyphenyl)-9H-pyrido[2,3-b]indole], the melting point lay within 162 to 164 °C.
Still for that read-out and setting: as for `COc1ccc(-c2ccc3c(c2)c2ccc(/C=C/c4ccccc4)nc2n3S(=O)(=O)c2ccccc2)cc1` [compound 43, 9-benzenesulfonyl-6-(4-methoxyphenyl)-2-(2′-phenylethenyl)-9H-pyrido[2,3-b]indole], the figure is 193 to 195 °C.
Regarding `Oc1cnc2[nH]c3ccc(CCc4ccccc4)cc3c2c1` [R276], the IC50 in data set [6] is 0.5 ± 0.1 µM; in data set [4], 1 µM; in data set [1] it was above 25 µM. Moreover, the GI50 in data set [2] was above 25 µM.
Molecule `O=C(O)c1ccc2[nH]c3ncc(Cl)cc3c2c1` [compound 5, 3-chloro-9H-pyrido[2,3-b]indol-6-carboxylic acid] yielded a melting point above 295 °C.
Molecule `C(=C\c1ccnc2[nH]c3ccccc3c12)/c1ccccc1` [R310, 4-(2′-phenylethenyl)-9H-pyrido[2,3-b]indole] displayed a melting point above 220 °C.
On the same count and under the same terms, as for `O=C(O)CCC(=O)c1ccc2[nH]c3nc(Cl)ccc3c2c1` [compound 12, 4-(2-Chloro-9H-pyrido[2,3-b]indol-6-yl)-4-oxo-butyric acid], the figure is 280.8 °C.

The IC50 is the concentration that inhibits the measured activity by half. One may read the melting point as the temperature, or range, at which the solid turns liquid.
